Experiments:
THP1 cells = assay: Lipopolysaccharide-activated THP1 cell TNF production assay; format: cell-based, human; conditions: Homo sapiens, THP-1; LPS-induced TNF-α production in THP1 cells
Method: Lipopolysaccharide-Activated THP1 Cell TNF Production Assay
THP1 cells are resuspended in fresh THP1 media (RPMI 1640, 10% heat-inactivated FBS, 1×PGS, 1×NEAA, plus 30 μM βME) at a concentration of 1E6/mL. One hundred microliters of cells per well are plated in a polystyrene 96-well tissue culture. One microgram per mL of bacterial LPS is prepared in THP1 media and is transferred to the wells. Test compounds are dissolved in 100% DMSO and are serially diluted 3-fold in a polypropylene 96-well microtiter plate (drug plate). HI control and LO control wells contain only DMSO. One microliter of test compound from the drug plate followed by 10 μL of LPS are transferred to the cell plate. The treated cells are induced to synthesize and secrete TNF-α at 37° C. for 3 h. Forty microliters of conditioned media are transferred to a 96-well polypropylene plate containing 110 μL of ECL buffer (50 mM Tris-HCl pH 8.0, 100 mM NaCl, 0.05% Tween 20, 0.05% NaN3 and 1% FBS) supplemented with 0.44 nM MAB610 monoclonal Ab (R&D Systems), 0.34 nM ruthenylated AF210NA polyclonal Ab (R&D Systems) and 44 μg/mL sheep anti-mouse M280 Dynabeads (Dynal). After a 2 h incubation at room temperature with shaking, the reaction is read on the ECL M8 Instrument (IGEN Inc.). A low voltage is applied to the ruthenylated TNF-α immune complexes, which in the presence of TPA (the active component in Origlo), results in a cyclical redox reaction generating light at […]. The amount of secreted TNF-α in the presence of compound compared with that in the presence of DMSO vehicle alone (HI control) is calculated using the formula: % control (POC)=(cpd−average LO)/(average HI−average LO)*100. Data (consisting of POC and inhibitor concentration in μM) is fitted to a 4-parameter equation (y=A+((B−A)/(1+((x/C)^D))), where A is the minimum y (POC) value, B is the maximum y (POC), C is the x (cpd concentration) at the point of inflection and D is the slope factor) using a Levenburg-Marquardt non-linear regression algorithm.

monocytes = assay: Lipopolysaccharide-activated monocyte TNF production assay (LPS induced TNF release); format: cell-based, human; conditions: Homo sapiens, Monocyte; LPS induced TNF release from monocytes; read-out: LPS induced TNFa
Method: Lipopolysaccharide-Activated Monocyte TNF Production Assay
Test compounds were evaluated in vitro for the ability to inhibit the production of TNF by monocytes activated with bacterial lipopolysaccharide (LPS). Fresh residual source leukocytes (a byproduct of plateletpheresis) were obtained from a local blood bank, and peripheral blood mononuclear cells (PBMCs) were isolated by density gradient centrifugation on Ficol-Paque Plus (Pharmacia). PBMCs were suspended at 2×10^6/mL in DMEM supplemented to contain 2% FCS, 10 mM, 0.3 mg/mL […], 100 U/mL penicillin G and […] streptomycin sulfate (complete media). Cells were plated into Falcon flat bottom, 96 well culture plates (200 μL/well) and cultured overnight at 37° C. and 6% CO2. Non-adherent cells were removed by washing with 200 μl/well of fresh medium. Wells containing adherent cells (˜70% monocytes) were replenished with 100 μL of fresh medium.
Preparation of Test Compound Stock Solutions
Test compounds were dissolved in […]. Compound stock solutions were prepared to an initial concentration of […]. Stocks were diluted initially to […] in complete media. Nine two-fold serial dilutions of each compound were then prepared in complete medium.
Treatment of Cells with Test Compounds and Activation of TNF Production with Lipopolysaccharide
One hundred microliters of each test compound dilution were added to microtiter wells containing adherent monocytes and 100 μL complete medium. Monocytes were cultured with test compounds for 60 min at which time 25 μL of complete medium containing 30 ng/mL lipopolysaccharide from E. coli K532 were added to each well. Cells were cultured an additional 4 hrs. Culture supernatants were then removed and TNF presence in the supernatants was quantified using an ELISA.
Flat bottom, 96 well Corning High Binding ELISA plates were coated overnight (4° C.) with 150 μL/well of 3 μg/mL murine anti-human TNF-α MAb (R&D Systems #MAB210). Wells were then blocked for 1 h at room temperature with 200 μL/well of CaCl2-free ELISA buffer supplemented to contain 20 mg/mL BSA (standard ELISA buffer: […], 150 mM NaCl, 2 mM CaCl2, 0.15 mM thimerosal, pH 7.4). Plates were washed and replenished with 100 μL of test supernatants (diluted 1:3) or standards. Standards consisted of eleven 1.5-fold serial dilutions from a stock of 1 ng/mL recombinant human TNF (R&D Systems). Plates were incubated at room temperature for 1 h on orbital shaker (300 rpm), washed and replenished with 100 μL/well of 0.5 μg/mL goat anti-human TNF-α (R&D systems #AB-210-NA) biotinylated at a 4:1 ratio. Plates were incubated for 40 min, washed and replenished with 100 μL/well of alkaline phosphatase-conjugated streptavidin (Jackson ImmunoResearch #016-050-084) at 0.02 μg/mL. Plates were incubated 30 min, washed and replenished with 200 μL/well of 1 mg/mL of p-nitrophenyl phosphate.
Standard curve data were fit to a second order polynomial and unknown TNF-α concentrations determined from their OD by solving this equation for concentration. TNF concentrations were then plotted vs. test compound concentration using a second order polynomial. This equation was then used to calculate the concentration of test compounds causing a 50% reduction in TNF production.

p38α = p38α (Homo sapiens, UniProt Q16539); assay: p38 in-vitro HTRF enzyme assay; format: biochemical; conditions: IC50 value ranges
Chain of p38α (Q16539 whole entry): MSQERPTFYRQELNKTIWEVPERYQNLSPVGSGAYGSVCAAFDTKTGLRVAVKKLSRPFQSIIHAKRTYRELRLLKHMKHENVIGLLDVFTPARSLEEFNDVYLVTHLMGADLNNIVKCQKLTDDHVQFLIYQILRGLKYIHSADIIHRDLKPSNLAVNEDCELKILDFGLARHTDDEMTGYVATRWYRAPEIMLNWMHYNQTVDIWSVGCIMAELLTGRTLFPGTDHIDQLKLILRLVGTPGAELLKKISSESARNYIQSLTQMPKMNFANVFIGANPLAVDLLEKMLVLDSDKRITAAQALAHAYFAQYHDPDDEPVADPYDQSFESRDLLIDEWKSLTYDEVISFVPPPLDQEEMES
Method: p38 In-Vitro HTRF Enzyme Assay
The compounds of the invention can be tested for their respective affinities for the p38 protein using a conventional p38 in-vitro enzyme activity assay. For example, a P38-alpha HTRF assay may be used to measure the protein's in-vitro phosphorylation activity, and the data analyzed using time resolved fluorimetry techniques (FRET). A p38 HTRF assay is as follows. The kinase reaction buffer for p38α, p38β, p38δ and p38γ HTRF assays consists of 50 mM Tris-pH 7.5, 5 mM MgCl2, 0.1 mg/mL BSA, 100 μM Na3VO4 and 0.5 mM DTT. The HTRF detection buffer contains 100 mM HEPES-pH 7.5, 100 mM NaCl, 0.1% BSA, 0.05% Tween-20, and 10 mM EDTA. Each compound was dissolved in 100% DMSO and serially diluted (3 fold, 10 point) in a polypropylene 96-well microtiter plate (drug plate). The final starting concentration of the compound in the p38α and p38β enzymatic assays was about 1 μM. The final starting concentration of each compound in the p38δ and p38γ enzymatic assays was about 10 μM. The p38α, p38β, p38δ and p38γ kinase reactions were carried out in a polypropylene 96-well black round bottom assay plate in total volume of 30 μL kinase reaction buffer. Appropriate concentration of purified and activated enzyme (recombinant human) was mixed with indicated concentration of ATP and 100 nM GST-ATF2-Avitag, in the presence or absence (HI control) of each compound. In the absence of enzyme, the background was measured as LO control. HI controls and LO controls contained only DMSO. The reaction was allowed to incubate for 1 hour at RT. […] After 60 minutes incubation at room temperature, the assay plate was read in a Discovery Plate Reader. The wells were excited with coherent 320 nm light and the ratio of delayed ([…] post excitation) emissions at […] (native europium fluorescence) and 665 nm (europium fluorescence transferred to allophycocyanin—an index of substrate phosphorylation) was determined (Park et al, 1999). The resulting data was analyzed by taking the proportion of substrate phosphorylated in the kinase reaction in the presence of each individual compound and comparing it with that phosphorylated in the presence of DMSO vehicle alone (HI control). The data was calculated using the formula: % control (POC)=(compound−average LO)/(average HI−average LO)*100. Data (consisting of POC and inhibitor concentration in μM) was fitted to a 4-parameter equation (y=A+((B−A)/(1+((x/C)^D))), where A is the minimum y (POC) value, B is the maximum y (POC), C is the x (compound concentration) at the point of inflection and D is the slope factor, using a Levenburg-Marquardt non-linear regression algorithm. The inhibition constant (Ki) of the inhibitor was estimated from the IC50 (compound concentration at the point of inflection C) using the Cheng-Prussof equation: Ki=IC50/(1+S/Km), where S is the ATP substrate concentration, and Km is the Michaelis constant for ATP as determined experimentally. All results were expressed as the mean±the standard error of the mean. Data acquisition and non-linear regression algorithms were performed using Activity Base v5.2 and XLfit software v4.1 respectively. Additional assay information may be obtained in Park Y W, Cummings R T, Wu L, et al. Homogeneous Proximity Tyrosine Kinase Assays Scintillation Proximity Assay versus Homogeneous Time-Resolved Fluorescence. Analytical Biochemistry. 1999; 269: 94-104.

| IC50 (THP1 cells) [nM] | IC50 (monocytes) [nM] | IC50 (p38α) [nM] | SMILES |
| --- | --- | --- | --- |
| < 25 | 100 to 250 |  | Cc1cc(F)c(C(=O)Nc2ccnn2C)cc1-c1ccn2c(-c3sccc3C)nnc2c1 [Example 68, 2-fluoro-4-methyl-N-(1-methyl-1H-pyrazol-5-yl)-5-(3-(3-methyl-2-thienyl)[1,2,4]triazolo[4,3-a]pyridin-7-yl)benzamide] |
| 250 to 1000 | 1000 to 5000 |  | Cc1ccc(C(=O)NC2CC2)cc1-c1ccn2c(N3CCNC3=O)nnc2c1 [Example 100, N-cyclopropyl-4-methyl-3-(3-(2-oxo-1-imidazolidinyl)[1,2,4]triazolo[4,3-a]pyridin-7-yl)benzamide] |
| < 25 | < 25 |  | Cc1ccc(C(=O)NC2CC2)cc1-c1ccn2c(-c3c(F)cccc3F)nnc2c1 [Example 65, N-cyclopropyl-3-(3-(2,6-difluorophenyl)[1,2,4]triazolo[4,3-a]pyridin-7-yl)-4-methylbenzamide] |
| 25 to 100 | 100 to 250 |  | Cc1cc(F)c(C(=O)Nc2ccnn2C)cc1-c1ccn2c(-c3ccccc3Cl)nnc2c1 [Example 71, 5-(3-(2-chlorophenyl)[1,2,4]triazolo[4,3-a]pyridin-7-yl)-2-fluoro-4-methyl-N-(1-methyl-1H-pyrazol-5-yl)benzamide] |
| 25 to 100 | 100 to 250 |  | Cc1cc(F)c(C(=O)NC2CC2)cc1-c1ccn2c(-c3sccc3C)nnc2c1 [Example 67, N-cyclopropyl-2-fluoro-4-methyl-5-(3-(3-methyl-2-thienyl)[1,2,4]triazolo[4,3-a]pyridin-7-yl)benzamide] |
| 25 to 100 | 100 to 250 |  | Cc1ccc(C(=O)NC2CC2)cc1-c1ccn2c(C(C)(C)C)nnc2c1C [Example 77, N-cyclopropyl-3-(3-(1,1-dimethylethyl)-8-methyl[1,2,4]triazolo[4,3-a]pyridin-7-yl)-4-methylbenzamide] |
| 100 to 250 |  | < 25 | Cc1ccc(C(=O)NC2CC2)cc1-c1ccn2c(-c3ccc(S(C)(=O)=O)cc3Cl)nnc2c1 [Example 26, 3-(3-(2-chloro-4-(methylsulfonyl)phenyl)[1,2,4]triazolo[4,3-a]pyridin-7-yl)-N-cyclopropyl-4-methylbenzamide] |
| 25 to 100 | 100 to 250 |  | Cc1c(F)cc(C(=O)NC2CC2)cc1-c1ccn2c(C(C)(C)C)nnc2c1C [Example 76, N-cyclopropyl-3-(3-(1,1-dimethylethyl)-8-methyl[1,2,4]triazolo[4,3-a]pyridin-7-yl)-5-fluoro-4-methylbenzamide] |
|  |  | < 25 | COc1ccccc1-c1nnc2cc(-c3cc(C(=O)NC4CC4)ccc3C)ccn12 [Example 85, N-cyclopropyl-4-methyl-3-(3-(2-(methyloxy)phenyl)[1,2,4]triazolo[4,3-a]pyridin-7-yl)benzamide] |
| 25 to 100 | 100 to 250 |  | Cc1ccc(C(=O)NC2CC2)cc1-c1ccn2c([C@@H](C)C(F)(F)F)nnc2c1 [Example 87, N-cyclopropyl-4-methyl-3-(3-((1R)-2,2,2-trifluoro-1-methylethyl)[1,2,4]triazolo[4,3-a]pyridin-7-yl)benzamide] |
| 25 to 100 | 25 to 100 |  | Cc1cc(F)c(C(=O)NC2CC2)cc1-c1ccn2c(-c3c(F)cccc3Cl)nnc2c1 [Example 72, 5-(3-(2-chloro-6-fluorophenyl)[1,2,4]triazolo[4,3-a]pyridin-7-yl)-N-cyclopropyl-2-fluoro-4-methylbenzamide] |
|  |  | < 25 | Cc1ccc(C(=O)NC2CC2)cc1-c1ccn2c(-c3c(C)cccc3F)nnc2c1 [Example 84, N-cyclopropyl-3-(3-(2-fluoro-6-methylphenyl)[1,2,4]triazolo[4,3-a]pyridin-7-yl)-4-methylbenzamide] |
| < 25 | 25 to 100 |  | Cc1cc(F)c(C(=O)Nc2ccnn2C)cc1-c1ccn2c(-c3c(F)cccc3Cl)nnc2c1 [Example 73, 5-(3-(2-chloro-6-fluorophenyl)[1,2,4]triazolo[4,3-a]pyridin-7-yl)-2-fluoro-4-methyl-N-(1-methyl-1H-pyrazol-5-yl)benzamide] |
